Tested on: Male Sprague-Dawley rats
Experiment: Reversal of PCP-induced deficit in prepulse inhibition of the acoustic startle response (PPI)
Assay type: in vivo, rat
Settings: for reversal of PCP-induced deficit in PPI, percent PPI averaged for all three prepulse intensities: average of 69, 73 and 81 dB, FIG. 2; for reversal of PCP-induced deficit in PPI, percent PPI averaged for all three prepulse intensities / reversal of PCP-induced deficit in PPI: 50 mg/kg p.o., adult male rats; for effect on pre-pulse inhibition: 10 and 50 mg/kg p.o. 45 min before PCP 2.5 mg/kg i.p.; for reversal of PCP-induced deficit in PPI: prepulse intensity 73 dB, FIG. 1
Protocol: Male Sprague-Dawley rats weighing 210-250 g at time of experiment were used. Animals were housed in a temperature and humidity controlled environment and allowed free access to food and water prior to use.
The amplitude of the inherent startle response varies considerably from animal to animal. The gain of the platforms must be calibrated to ensure that the average startle waveform falls within the desired range. To this end, baseline studies were conducted before the full PPI protocol to allow the calibration of the platforms to be fine-tuned to the startle waveform amplitude. This also allows the animals to become acclimatised to the testing equipment prior to drug administration.
Animals were placed in restraining holders and transferred to the designated chamber. Once all holders were securely fastened to the platform, the Baseline protocol was started. This consists of: • Acclimation Period: Animals were exposed to 5 minutes of 65 decibel (dB) background noise (white noise). • Block 1: 10× startle stimulus alone (white noise, 120 dB, 40 ms) • Block 2: 6× startle stimulus alone • 6× pre-pulse plus startle stimulus (pure tone, 16 dB above background noise, • 20 ms) followed 100 ms later by the startle stimulus. • During this time, the amplitude of the startle responses was recorded. On completion of this protocol, the sensitivity of the equipment was re-calibrated where necessary by adjusting the gain settings.
The same group of rats was again subjected to the Baseline protocol described above. Again, on completion of this protocol, the sensitivity of the equipment was re-calibrated where necessary by adjusting the gain settings. […] These animals were then returned to their home cages for subsequent dosing with compound.
The study compounds were suspended from dry powder stocks in Vehicle (5% Tween 80/5% PEG/saline) and sonicated for 60 minutes at 37° C. to generate suspensions suitable for oral dosing. Control rats received Vehicle by oral gavage. PCP was dissolved in sterile saline (0.9% NaCl).
Rats were dosed with either saline (0.9% NaCl) or 2.5 mg/kg PCP by intraperitoneal injection 15 minutes prior to PPI testing.
(2 S)-2-(2-Bromo-3-oxo-spiro[3.5]non-1-en-1-ylamino)-3-[4-([2,7]naphthyridin-1-ylamino)phenyl]proprionic acid or Clozapine was administered orally by gavage 45 minutes before challenge with PCP or saline. (2S)-2-(2-Bromo-3-oxo-spiro[3.5]non-1-en-1-ylamino)-3-[4-([2,7]naphthyridin-1-ylamino)phenyl]proprionic acid was administered at 10 mg/kg and 50 mg/kg. Clozapine was administered at 5 mg/kg. Vehicle control rats received Vehicle (5% Tween 80/5% PEG/saline) by oral gavage 45 minutes before challenge with PCP or saline.
Exactly 15 minutes after the injection of PCP or saline, the full PPI protocol was started. Animals were exposed to 5 minutes of 65 dB background noise (white noise) as an acclimation period, before the acoustic stimuli began. • Block 1: 6× startle stimulus alone (white noise, 120 dB, 40 ms) • Block 2: 14× startle stimulus • 8× no pulse • 30× pre-pulse (10 each of 4, 8, and 16 dB above the background noise) followed 100 ms later by the startle stimulus. This corresponds to intensities of 69, 73 and 81 dB, respectively. A total of 52 trials were presented to the animals in this block in a pseudo-random order with a variable interval of 8 to 23 seconds, averaging 15 s between trials). • Block 3: 6× startle stimulus alone
Pre-pulse inhibition was calculated from trials in Block 2 by the following formula:
% PPI=(100×[(pulse alone score)−(prepulse+pulse score)]/pulse alone

O=C(O)[C@H](Cc1ccc(Nc2nccc3ccncc23)cc1)NC1=C(Br)C(=O)C12CCCCC2 [(2S)-2-(2-Bromo-3-oxo-spiro[3.5]non-1-en-1-ylamino)-3-[4-([2,7]naphthyridin-1-ylamino)phenyl]proprionic acid]
reversal of PCP-induced deficit in PPI, percent PPI averaged for all three prepulse intensities (50 mg/kg): reversal | reversal of PCP-induced deficit in PPI, percent PPI averaged for all three prepulse intensities (listed as MGCD-0103, 50 mg/kg): significantly (p<0.05) reversed | effect on pre-pulse inhibition (prepulse intensity 69 dB (4 dB above background), rats): did not have a statistically significant effect | ability to attenuate the PCP-induced deficit in PPI (prepulse intensity 73 dB (8 dB above background), dose not specified (10 and 50 mg/kg p.o. tested), rats): more evident | reversal of PCP-induced deficit in PPI (50 mg/kg): reversal | reversal of PCP-induced deficit in PPI (listed as MGCD-0103, 50 mg/kg): significantly (p<0.05) reversed | effect on pre-pulse inhibition (prepulse intensity 81 dB (16 dB above background), rats): did not have a statistically significant effect

— US20140357654A1, “METHODS OF TREATING SCHIZOPHRENIA WITH PHENYLALANINE ENAMIDE DERIVATIVE INHIBITORS OF a4 INTEGRIN POSSESSING A CYCLOBUTENE GROUP” (AESTUS THERAPEUTICS, INC., priority 2011, published 2014)
